Experimental data published in PMC5438914 (SLAS discovery, 2016).
Where two headings read alike, the source gives them in different places.

How the values were obtained:
[1] = system: EF-Tu, EF-Ts, EF-G, and PheRS; test: specificity assays against the accessory proteins of the A/T system; format: biochemical, Pseudomonas aeruginosa; details: tested against each of the four accessory proteins
H. influenzae = test: time-kill experiments; details: 4× MIC; for bacteriostatic or bactericidal: 0 to 24 h
[2] = system: human embryonic kidney 293 cells (HEK-293)
S. aureus = test: time-kill experiments; details: 4× MIC; for bacteriostatic or bactericidal: 0 to 24 h
PheRS [3] = molecular target: T1, PheRS (Pseudomonas aeruginosa, UniProt Q9I0A3+Q9I0A4); test: competition assays with PheRS substrates ATP and Phe; format: biochemical; details: IC50 at ATP 25-1000 µM or Phe 25-300 µM; data not shown
PheRS [4] = molecular target: T1, PheRS; test: tRNA aminoacylation assay; format: biochemical
[5] = system: human embryonic kidney 293 cells (HEK-293); test: MTT cytotoxicity test; details: HEK-293, MTT, 24 h
[6] = molecular target: T2, human mitochondrial PheRS (hmPheRS) (Homo sapiens, UniProt O95363); test: hmPheRS aminoacylation assay; format: biochemical; details: 0.4 to 200 µM; at high concentrations
T2 sequence (O95363 1-451): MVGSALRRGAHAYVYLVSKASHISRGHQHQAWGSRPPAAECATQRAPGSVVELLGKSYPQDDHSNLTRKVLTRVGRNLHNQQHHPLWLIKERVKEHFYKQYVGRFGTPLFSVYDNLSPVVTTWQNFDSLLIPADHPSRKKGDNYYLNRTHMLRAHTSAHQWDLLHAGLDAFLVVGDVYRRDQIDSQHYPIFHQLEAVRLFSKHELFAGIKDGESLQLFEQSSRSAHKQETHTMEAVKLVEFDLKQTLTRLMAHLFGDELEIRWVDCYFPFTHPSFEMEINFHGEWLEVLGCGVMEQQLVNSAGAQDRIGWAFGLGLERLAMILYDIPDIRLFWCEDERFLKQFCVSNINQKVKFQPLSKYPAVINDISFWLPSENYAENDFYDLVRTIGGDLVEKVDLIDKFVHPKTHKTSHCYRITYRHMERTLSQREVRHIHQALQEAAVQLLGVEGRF

[7] = system: eukaryotic protein synthesis in wheat germ cell extract; test: wheat germ cell extract poly-Phe protein synthesis assay; format: biochemical; details: at 30 µM

T1 sequence (Q9I0A3 whole entry): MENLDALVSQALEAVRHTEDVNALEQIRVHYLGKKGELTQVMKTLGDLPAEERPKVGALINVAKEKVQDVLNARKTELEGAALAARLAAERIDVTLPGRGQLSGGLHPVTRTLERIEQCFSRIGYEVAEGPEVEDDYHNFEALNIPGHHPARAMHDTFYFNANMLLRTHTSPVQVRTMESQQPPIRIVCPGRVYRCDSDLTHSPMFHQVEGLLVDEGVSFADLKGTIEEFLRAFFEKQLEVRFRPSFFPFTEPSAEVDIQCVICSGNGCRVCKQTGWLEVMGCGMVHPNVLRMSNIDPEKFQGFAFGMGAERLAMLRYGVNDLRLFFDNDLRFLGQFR
T1 sequence (Q9I0A4 whole entry): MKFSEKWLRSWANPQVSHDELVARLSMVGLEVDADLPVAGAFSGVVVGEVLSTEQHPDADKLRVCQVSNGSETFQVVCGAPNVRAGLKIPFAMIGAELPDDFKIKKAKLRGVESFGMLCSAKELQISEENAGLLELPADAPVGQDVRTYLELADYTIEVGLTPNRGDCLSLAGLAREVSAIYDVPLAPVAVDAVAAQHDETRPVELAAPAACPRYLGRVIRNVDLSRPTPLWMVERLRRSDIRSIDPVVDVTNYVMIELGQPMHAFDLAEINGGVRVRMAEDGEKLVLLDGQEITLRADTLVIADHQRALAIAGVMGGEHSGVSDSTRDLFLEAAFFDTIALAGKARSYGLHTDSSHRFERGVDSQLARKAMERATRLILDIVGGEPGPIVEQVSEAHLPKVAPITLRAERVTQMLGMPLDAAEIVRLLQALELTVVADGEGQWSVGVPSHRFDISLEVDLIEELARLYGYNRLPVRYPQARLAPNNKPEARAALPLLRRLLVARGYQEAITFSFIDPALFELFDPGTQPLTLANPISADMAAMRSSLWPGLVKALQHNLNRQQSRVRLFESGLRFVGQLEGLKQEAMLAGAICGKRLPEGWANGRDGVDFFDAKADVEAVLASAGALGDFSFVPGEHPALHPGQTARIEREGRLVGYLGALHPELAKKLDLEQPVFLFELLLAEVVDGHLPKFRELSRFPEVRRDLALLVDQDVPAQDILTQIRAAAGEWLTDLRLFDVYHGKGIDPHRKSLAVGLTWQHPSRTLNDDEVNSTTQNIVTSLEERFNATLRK

Row | SMILES | specificity for a single component of the A/T assay [1] | bacteriostatic or bactericidal (H. influenzae) | growth in time-kill cultures (H. influenzae; up to 24 h) | IC50 (or CC50) for inhibition of cell growth [2] [µg/mL] | bacteriostatic or bactericidal (S. aureus) | growth in time-kill cultures (S. aureus; up to 24 h) | decrease in colony-forming units (CFU) compared with the control (H. influenzae; during the first 6 h) [log10] | mechanism of inhibition with respect to ATP and Phe (PheRS [3]) | IC50 (PheRS [4]) [µM] | IC50 (or CC50) for inhibition of cell growth [5] [µg/mL] | decrease in colony-forming units (CFU) compared with the control (S. aureus; during the first 6 h) [log10] | effect on the activity of hmPheRS [6] | inhibition of protein synthesis [7]
1 | N=C(N)NN=C(/C=C/c1ccc([N+](=O)[O-])o1)/C=C/c1ccc([N+](=O)[O-])o1 [BT06D07, difurazone] | did not inhibit an accessory protein | bactericidal | inhibited the growth of both bacteria completely during all times tested | > 400 | bactericidal | inhibited the growth of both bacteria completely during all times tested | – | – | – | – | – | – | –
2 | O=C(N/N=C/c1ccc([N+](=O)[O-])o1)c1cc([N+](=O)[O-])cc([N+](=O)[O-])c1O [BT06G06, nifursol] | specifically inhibit PheRS | bacteriostatic | – | – | bacteriostatic | – | 2 to 4 | noncompetitive with both of the natural substrates | 60.5 | 18.5 | 2 to 4 | only modestly affected | –
3 | C[C@@H]1C[C@@H]([C@H](O)CC2CC(=O)NC(=O)C2)C(=O)[C@@H](C)C1 [cycloheximide] | – | – | – | – | – | – | – | – | – | – | – | – | greater than 80%
